Experiments:
[1] = Light stability (photobleaching) of the endoperoxide under continuous excitation light; type: physicochemical; settings: 5.0 μM aqueous solution, 0.1 M phosphate buffer (pH 7.4), 0.1% DMSO, excitation light 491 nm, 37° C., fluorescence at 520 nm
Description: 5.0 μM aqueous solutions of DMAX-EP (endoperoxide of Compound 11 in the above scheme) and DPAX-1-EP (endoperoxide of Compound 13 described in International Patent Publication WO99/51586, Example 1) [0.1 M phosphate buffer (pH 7.4) containing 0.1% DMSO as a cosolvent]were each placed in a fluorescent cell and exposed to an excitation light of 491 nm at 37° C. with stirring, and fluorescence was measured at 520 nm by using a fluorometer while the solution was continuously exposed to the excitation light.

[2] = Measurement of singlet oxygen generated by naphthalene endoperoxide EP-1 (fluorescence)
Description: Singlet oxygen was generated continuously with time under a neutral condition at 37° C. in given amounts by using a naphthalene endoperoxide compound EP-1 (Saito, I, et al., J. Am. Chem. Soc., 107, pp. 6329-6334, 1985) as a singlet oxygen generation system. Fluorescence was measured in the presence of DMAX and DPAX-1 [100 mM phosphate buffer (pH 7.4), DMSO (0.1%)].

| SMILES | Photobleaching, times slower than that of DPAX-1-EP [1] [times] | Increase of fluorescence intensity with 0.5 mM EP-1 compared with 10 mM EP-1 in the presence of DPAX-1 ([2]; 100 mM phosphate buffer (pH 7.4), DMSO (0.1%), 37° C.) | Fluorescence intensity on generation of singlet oxygen ([2]; EP-1 increased from 0.1 mM to 0.5 mM and to 1.0 mM, 100 mM phosphate buffer (pH 7.4), DMSO (0.1%), 37° C.) | Sensitivity for singlet oxygen compared with DPAX-1 ([2]; EP-1 singlet oxygen generation system, pH 7.4, 37° C.) |
| --- | --- | --- | --- | --- |
| CC12OOC(C)(c3ccccc31)c1cc(-c3c4ccc(=O)cc-4oc4cc(O)ccc34)c(C(=O)O)cc12 (stereo not shown) [DMAX-EP] | 54 | – | – | – |
| Cc1c2ccccc2c(C)c2cc(-c3c4ccc(=O)cc-4oc4cc(O)ccc34)c(C(=O)O)cc12 [DMAX] | – | far larger | increase of fluorescence intensity dependent on the generated amount of singlet oxygen | much higher sensitivity |

From patent US20050123478A1, “Agent for measurement of singlet oxygen” (Daiichi Pure Chemicals Co., Ltd, priority 2000, published 2005)
